From patent publication US20180049996A1, “THERAPEUTIC AGENT FOR CHRONIC RESPIRATORY DISEASE AND COMPOSITION FOR INHIBITING CARDIAC FIBROSIS” (NIPPON HYPOX LABORATORIES INCORPORATED, priority 2015, published 2018) come the findings set out here.

For assay [1], the system named is TNF-α. Nature of the assay: TNF-α level in BAL fluid (ELISA), COPD model. The assay is classed as in vivo, C57BL/6N mice. To be noted: HTHQ 10 and 20 mg/kg/day oral; tobacco smoke 10 days + LPS; compared to COPD model group. Here is the method: 6 week old male SPF C57BL/6N mice, 20 to 25 g of body weight, were purchased from CORETEC INC. (South Korea).
The tests were conducted as follows. The mice in the COPD (chronic obstructive pulmonary disease) model group of the test groups were exposed to tobacco smoke for 1 hour per day (8 cigarettes/day) for 10 days and LPS (5 μg/50 μL/mouse) was intranasally administered to the mice on day 8 after the start of the tests. […]
The mice in the test groups were euthanized 72 hours after the LPS administration and the mice in the normal control group were euthanized on day 11 after the start of the tests by intraperitoneal injection of pentobarbital (Hanrimu pharmaceutical, South Korea) at 50 mg/kg and then the bronchi were excised. […] After preparing slide samples from 100 μL of BAL cell fluid using Cytospin (4° C., 1000 rpm×5 min), the cell numbers of inflammatory cells (neutrophil, macrophages) present in the BAL fluid were counted using a Diff-Quik stain kit.
The supernatant of the BAL fluid stored was taken out of the super-cryostat, and TNF-α and IL-6 levels were measured as the levels of pro-inflammatory cytokines in the supernatant. A quantitative ELISA kit (a product from Invitrogen) and an ELISA analyzer (a product from Molecular Devices, LLC.) were used for the measurement and the measurement wavelength was 450 nm.
Background: ELISA stands for enzyme-linked immunosorbent assay.

Assay [2] concerns IL-13. Nature of the assay: IL-13 level in BAL fluid (ELISA), ovalbumin asthma model. The assay is classed as in vivo, BALB/c female mice. The conditions noted are these: HTHQ 20 and 40 mg/kg/day oral; compared to OVA group. How it is done:
6 week old BALB/c female mice were purchased and the mice were divided into 5 groups with 5 animals per group shown in Table 3 below after habituation breeding of about 2 weeks.
The test was conducted on the schedule of sensitization, causing diseases and administration of test materials shown in FIG. 12. “IP” in FIG. 12 refers to ovalbumin sensitization treatment by the intraperitoneal administration of ovalbumin/aluminum hydroxide, and “IH” refers to inhalation exposure treatment of ovalbumin, and “PO” refers to the administration of the test materials. […]
All mice were euthanized by intraperitoneal injection of pentobarbital (Hanrimu pharmaceutical, South Korea) at 50 mg/kg and the bronchi were excised on day 25 of the test. […] After preparing slide samples from 100 μL of BAL cell fluid using Cytospin (4° C., 1000 rpm×5 min), the cell numbers of inflammatory cells (eosinophils, macrophages, lymphocytes and neutrophils) present in the BAL fluid were counted using a Diff-Quik stain kit.
The supernatant of the BAL fluid stored was taken out of the super-cryostat and IL-4, IL-5 and IL-13 levels were measured as the pro-inflammatory cytokine contents in the supernatant of the BAL fluid. A quantitative ELISA kit (a product from R&D systems) and a microplate reader (a product from Bio-Rad Laboratories, Inc.) were used for the measurement and the measurement wavelength was 450 nm.

Structures are written as SMILES.

`CCCCCCOc1cc(C)c(O)c(C)c1C` [HTHQ, 2,3,5-trimethylhydroquinone-1-hexyl ether]: the “TNF-α level in BAL fluid” value in assay [1] is “effectively reduced”. The “IL-13 content in BAL fluid” value in assay [2] is “significantly reduced”.
